biological target: T1, P2X purinoceptor 3 (Homo sapiens, UniProt P56373); experiment: Inhibiton Assay: Inhibition assay using human P2X3 receptor gene (GeneBank accession number Y07683).
T1 sequence (P56373 whole entry): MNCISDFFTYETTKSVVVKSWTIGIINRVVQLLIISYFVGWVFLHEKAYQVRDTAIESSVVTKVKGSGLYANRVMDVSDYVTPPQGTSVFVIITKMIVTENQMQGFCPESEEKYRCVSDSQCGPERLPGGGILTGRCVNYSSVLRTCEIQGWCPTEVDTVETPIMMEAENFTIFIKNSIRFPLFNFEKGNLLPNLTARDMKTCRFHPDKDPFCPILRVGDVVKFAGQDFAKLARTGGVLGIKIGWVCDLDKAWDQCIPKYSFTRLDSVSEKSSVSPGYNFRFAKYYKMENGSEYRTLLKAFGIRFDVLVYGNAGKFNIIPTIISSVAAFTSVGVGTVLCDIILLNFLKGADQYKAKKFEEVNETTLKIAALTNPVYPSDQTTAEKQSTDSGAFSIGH

Row | IC50 | Compound
1 | 811 nM | COc1ncccc1C1c2c(n[nH]c2C(C)(C)C)C(=O)N1c1ccc(Br)cc1 (stereo not drawn)
2 | 473 nM | COc1ccccc1C1c2c(n[nH]c2C(C)(C)CO)C(=O)N1c1ccc(Br)cc1 (stereo not drawn)
3 | 238 nM | COc1ccccc1C1c2c(n[nH]c2C(C)(C)C)C(=O)N1c1ccc(Br)cc1 (stereo not drawn)
